Test results: patent publication US9456589B2, “Elasmobranch-repelling compounds and methods of use” (priority 2005, dated 2016)
Where “and” joins values, the source holds several entries; their conditions need not be identical. Equal values may be shown once. Entries after “also recorded” stand apart in the source; their conditions may differ.

What was measured:
[1] = tested on: nurse sharks; assay: Tonic immobility, Hd Syringe Assay; assay type: in vivo, C. cirratum; conditions: nurse; Hd syringe
Procedure: (§1) One bioassay used to observe and measure flight response is the tonic immobility test. Tonic immobility is a state of paralysis that typically occurs when a shark is subject to inversion of its body along the longitudinal axis. This state is called “tonic,” and the shark can remain in this state for up to 15 minutes thereby allowing researchers to observe effects of chemical repellents. The “tonic” state of the shark is first established by releasing seawater in proximity to the “tonic” shark with the same delivery instrument and at the same distance as a “test” repellent compound will be released. Some controls are released with a high flow rate (30 mL/sec) in order to establish that sharks are not awakened by a jet of fluid over their noses. Once behavioral controls are established, a compound or composition that may have a repelling effect is delivered to the shark. If the compound or composition engenders a flight response, the shark will awaken from the tonic state and rapidly attempt to flee the delivered repellent. Using this tonic immobility bioassay researches can quantify the strength of a repellent effect.
Lemon, nurse, blacktip and tiger sharks were placed in tonic immobility by inverting the shark's body along its longitudinal axis. […]

[2] = tested on: lemon sharks; assay: Tonic immobility, Hd Syringe Assay; assay type: in vivo, N. brevirostris; conditions: lemon; Hd syringe
Procedure: as §1
(§2) Lemon, nurse, blacktip and tiger sharks were placed in tonic immobility by inverting the shark's body along its longitudinal axis. […] The “tonic” state of each shark was first established by releasing a control of seawater in proximity to the shark with the same delivery instrument and at the same distance as the chemical repellent would later be delivered. In certain controls, sea water was released with a high flow rate (30 mL/sec) in order to establish that the sharks would not be awakened by a jet of fluid over their noses.
Once behavioral controls were established, the chemical repellent was delivered to the shark using the Hd Syringe Assay method, the Syringe 3/5/10 Assay method, the Bite Assay method or the Micropipette Assay method. […]

[3] = tested on: lemon sharks; assay: Tonic immobility, Micropipette Assay; assay type: in vivo, N. brevirostris; conditions: lemon / juvenile sharks; micropipette
Procedure: as §1
(§3) A fourth method of delivery was called the “Micropipette Assay” method of delivery. In this method, a very small dose (fraction of a mL) of a test substance was delivered directly into a shark's mouth. […] A response, such as a cough or other notable action of the shark, was usually noted when effective gustatory repellents were delivered directly into a shark's mouth while in tonic immobility.
(§4) The Micropipette Assay method has not proven to be a particularly effective method of assaying for a flight response in elasmobranchs. The Micropipette Assay method is, nevertheless, an excellent method for specifying that a gustatory response has occurred. It is effective for specifying a gustatory response because the micropipette delivery method allows direct delivery of an entire bolus of test substance into the mouth of the shark being tested.
Using a microliter syringe or microliter pipette, a bolus of test chemical can be directed precisely into one of the shark's nares, or its mouth. […] Olfactory repellents will terminate tonic immobility almost immediately when injected into a nare of the shark.
as §2
(§5) Once behavioral controls were established, the chemical repellent was delivered to the shark using the Hd Syringe Assay method, the Syringe 3/5/10 Assay method, the Bite Assay method or the Micropipette Assay method. […] If tonic immobility was terminated, the positive response was denoted as “Y.” If tonic immobility was not terminated but a behavior change within tonic immobility was noted, such as the opening of the mouth or a cough, the response was denoted as an “R” for reduced response. If no behavior change was observed, the negative response was denoted “N.”
Further because the Micropipette assays were often done serially on the same set of sharks, second and third doses of the repellent over time would be expected to evoke less of a reaction. Nevertheless, the small doses delivered to the shark in the Micropipette assay provide important data on whether a compound is a gustatory stimulant because the small dose may be delivered directly into the mouth of the shark. This eliminates any olfactory response that might be acting in concert with a gustatory response to terminate tonic immobility.

[4] = tested on: nurse sharks; assay: Tonic immobility, Micropipette Assay; assay type: in vivo, C. cirratum; conditions: nurse; micropipette; 270 ul
Procedure: as §1, §3
as §4, with “tested. […]” for “tested.”

[5] = tested on: blacktip sharks; assay: Tonic immobility, Syringe 3/5/10 Assay; assay type: in vivo, C. limbatus
Procedure: as §1
In the tonic immobility studies disclosed herein, several different methods were employed for delivery of repelling compounds. A first method for delivery of chemical repellent in tonic immobility studies employed a “Syringe 3/5/10 Assay” method. The “Syringe 3/5/10 Assay” method is so named because a test repellent is delivered to a shark from a distance of about “3” inches with a bolus of about “5” mL with a response to the test repellent considered positive if the shark reacts with a change in behavior within less than about “10” seconds from the time of delivery.
The “3/5/10 Syringe Assay” as employed herein delivered a dose of 5-6 mL of a test chemical repellent from a syringe fixed with a needle having a gauge of about 22 from a distance at least 3 inches in front of a shark. Because the test chemical repellent was delivered at a distance from the shark's nares and mouth, a cloud of test chemical repellent was dispersed over the shark within the water column. The dispersed test repellent was subject to water current direction, dispersion and dilution. As a result, a flight response within 10 seconds was considered a positive repellency response. […] Time from delivery to response is related to the size of the bolus delivered from the syringe, distance of the shark from the syringe and water current.
as §2, §5
In Syringe 3/5/10 Assays, 5-6 mL of 3-methylbutanal was delivered at least 3 inches in front of the shark's mouth. A cloud of the repellent dispersed over the shark within the water column. […] As noted above, because the dispersion of the chemical repellent upon delivery is affected by volume of repellent, water current, and other factors, the time between delivery and response was not correlatable with the potency of the repellent. […]

[6] = tested on: tiger sharks; assay: Tonic immobility, Syringe 3/5/10 Assay; assay type: in vivo, G. cuvieri; conditions: tiger shark
Procedure: as §1
In the tonic immobility studies disclosed herein, several different methods were employed for delivery of repelling compounds. A first method for delivery of chemical repellent in tonic immobility studies employed a “Syringe 3/5/10 Assay” method. […]

[7] = tested on: nurse sharks; assay: Tonic immobility, Syringe 3/5/10 Assay; assay type: in vivo, C. cirratum; conditions: juvenile nurse sharks
[8] = tested on: lemon sharks; conditions: Table 24; lemon shark; swab delivery
[9] = tested on: Caribbean reef and blacknose sharks; assay: Cloud Dispersion Assay on competitively feeding sharks; assay type: in vivo, C. perezii, C. acronotus; conditions: 290 microliters
Text: Another bioassay used to observe a flight response in sharks is a cloud dispersion assay on competitively feeding population of sharks. This assay is referred to as a “Cloud Dispersion Assay” or “Cloud Assay.” A pressurized fluid delivery system was designed to deliver repellent into large feeding populations of sharks. The repellent is released as a subsurface cloud, which follows the current. A 1 L plastic container containing the test chemical repellent solution is pressurized to approximately 20 psig with a battery compressor or hand pump. A globe valve is used to hold back the fluid. The fluid is delivered to the end of a long PVC pole using a Teflon tubing. This allows the operator to place the tip of the pole well into a population of feeding sharks. By actuating the small globe valve, a cloud of the chemical solution is released quickly and reliably into the feeding population. Controls are established using FD&C Red 40 dye and seawater, uncolored seawater, and air. These controls establish that sharks are not afraid to approach the delivery pole, nor are sharks deterred from feeding by the jet of control fluid or air.
In each assay disclosed herein, a control of sea water was performed prior to the testing of each test repellent. In the control, sea water was delivered to the shark to be tested in the same delivery manner as the test repellent was delivered. […]

[10] = tested on: nurse sharks; assay: Tonic immobility, Bite Assay; assay type: in vivo, C. cirratum
Procedure: One bioassay used to observe and measure flight response is the tonic immobility test. Tonic immobility is a state of paralysis that typically occurs when a shark is subject to inversion of its body along the longitudinal axis. This state is called “tonic,” and the shark can remain in this state for up to 15 minutes thereby allowing researchers to observe effects of chemical repellents. The “tonic” state of the shark is first established by releasing seawater in proximity to the “tonic” shark with the same delivery instrument and at the same distance as a “test” repellent compound will be released. Some controls are released with a high flow rate (30 mL/sec) in order to establish that sharks are not awakened by a jet of fluid over their noses. Once behavioral controls are established, a compound or composition that may have a repelling effect is delivered to the shark. […] Using this tonic immobility bioassay researches can quantify the strength of a repellent effect. […]
In Bite Assays, a dose of typically less than 5 mL of 3-methylbutanal was presented directly into the shark's mouth using a pipette. […] Because the delivery was directly into the shark's mouth and responses were generally observed immediately upon delivery, time to response was not recorded.

[11] = tested on: sharks (lemon, nurse, blacknose, blacktip pooled); assay: Tonic immobility, Syringe Assay, summary over species; assay type: in vivo
Procedure: as §1
A second delivery method called the “Syringe Assay” method delivered a dose of 60 mL or more of a test chemical repellent from at least one foot, and up to as many as five feet, from a shark. The distance of delivery was determined based on the strength of the water current in the direction of the shark. Time from delivery of the test substance until response was observed, measured and recorded. The “Syringe” method allows a researcher to observe how a diffusing and diluting cloud of test chemical repellent affects the shark's behavior when the shark encounters the delivered cloud of test substance. The “Syringe” method requires relatively large doses because of the diffusion of the cloud over time and distance. Time from delivery to response is related to the size of the bolus delivered from the syringe, distance of the shark from the syringe and water current.
In the Syringe assay about 60 mL or more of valeraldehyde was delivered from one to as many as five feet from the shark depending on the water current. […] Time from delivery to response was related to the size of the bolus delivered from the syringe, distance of the shark from the syringe and water current.

## CCC(C=O)CC [diethylacetaldehyde]
[1]
  Comments (behavior observed): cough
[2]
  Comments (behavior observed): cough
[3]
  Comments (behavior observed): blinked; also recorded: cough
[4]
  Response (time from delivery to response): 1 s
[5]; blacktip sharks
  Syringe 3/5/10 assays terminating tonic immobility: two of four
  Syringe 3/5/10 assays with behavioral response: behavioral response
  Syringe 3/5/10 assays with no response: no response
[5]; blacktip, syringe 3/5/10
  Comments (behavior observed): cough/tensed
[6]
  Syringe 3/5/10 assay outcome: terminated
[7]
  Syringe 3/5/10 assays terminating tonic immobility: six of six

## O=C(O)CCC(=O)O [succinic acid]
[8]
  T? (termination of tonic immobility): N

## CC(=O)C(C)=O [2,3-butanedione]
[9]
  Cloud/Cage N (no response): no response and 1/1
[10]
  Bite Y (termination of tonic immobility), trials of trials: terminated and 1/1
[11]
  Syringe N (no response), trials of trials: 1/8
  Syringe R (behavior response within tonic immobility), trials of trials: behavioral response
  Syringe Y (termination of tonic immobility), trials of trials: seven of eight and 7/8
